Data published in patent US20090028795A1, “NOD1 as an Anti-Tumor Agent” (priority 2005, published 2009).
Non-standard residues stand in square brackets, D forms with d. No end group written: not given here. DAP = diaminopimelic acid

What was measured:
Assay type in all cases: cell-based, human
[1] = test system: MCF-7 C20 cells with Nod2; test: Apoptosis in MCF-7 C20 cells complemented with Nod2; settings: MCF-7 C20 complemented with Nod2 (data not shown)
MCF-7 cells = test: Propidium iodide exclusion cell death assay, wild-type (parental/Blasto) MCF-7 cells; settings: for cell death / apoptosis: wild type cells, agent alone
Method: (§1) Cell viability assays. Propidium iodide exclusion assay: Cells were stimulated as indicated for 2 days. Subsequently, cells were harvested, washed twice in FACS buffer (PBS containing 1% FCS and 0.1% NaN3) and resuspended in propidium iodide (PI)-containing FACS buffer (4 ug/ml). The extent of cell death was analyzed with a FACSCalibur flow cytometer (Becton Dickinson, Mountain View, Calif.). DAPI staining: MCF-7 cells were plated in chamber slides, and stimulated for 2 days. Cells were washed with PBS and apoptotic nuclei were stained with 1 μg/ml DAPI (Sigma Chemical Co., St. Louis, Mo.). Cells were fixed in 4% paraformaldehyde and examined by fluorescence microscopy.
(§2) To further investigate the role of Nod1 in apoptosis, a variety of cell types were incubated with the Nod1 ligand, […] (γTriDAP), which specifically activates Nod1. The cell types tested included the parental MCF-7 cell line, the Nod1-deficient MCF-7C20 clone, and a cell line engineered to contain an additional human Nod1 allele (MCF-7Nod1) so that Nod1 was over-expressed. To determine whether the resistance of C20 cells to γTriDAP-induced apoptosis resulted from the absence of Nod1, human Nod1 was stably expressed in MCF-7 C20 cells to produce Nod1-sufficient C20 cells (C20/Nod1). As another control, the parental MCF-7 cell line was transfected with an empty retroviral vector to generate MCF-7 Blasto cells. Cells were treated with γTriDAP in the presence or absence of cycloheximide (CHX) and cell death was then determined by propidium iodide staining and flow cytometry.

[2] = test system: poly(ADP-ribose)polymerase (PARP) and capases 6, 7, 8 and 9; test: Western blot of PARP and caspase cleavage in MCF-7 cells; settings: CHX 0.5 ug/ml, 24 h
Method: Cleavage of PARP and various caspases was detected by Western blot analysis of cell MCF-7 Blasto, MCF-7 C20 and MCF-7 Nod1 after stimulation with γTriDAP, αTriDAP or medium (control) in the presence or absence of CHX (0.5 ug/ml) for 24 h. Cells were harvested, subjected to western blotting and PARP, caspases, p20, p41/43 and p35 were detected with antibodies reactive thereof.
Western blot analysis and immunoprecipitation. Cells were washed extensively and lysed using lysis buffer containing 50 mM Hepes, 100 mM NaCl, 2 mM EDTA, 10% glycerol, 1% Nonidet P-40, 14 μM pepstatin A, 100 uM leupeptin, 3 mM benzamidine, 1 mM PMSF, 1 mM sodium pyrophosphate, 10 mM sodium orthovanadate, 100 U/ml aprotinin, and 100 mM sodium fluoride. After incubation for 30 min on ice, cell lysates were centrifuged (14000 rpm, 10 min, 4° C.) and the supernatants were recovered. For immunoprecipitation, cell lysates were mixed with 5 μg of antibody for 3 hour at 4° C. under constant agitation. Immune complexes were allowed to bind to 20 μl protein A-Sepharose beads overnight, beads were washed three times with lysis buffer. Immunoprecipitates were separated on SDS-PAGE and transferred to PVDF membranes.

JNK = JNK phosphorylation in MCF-7 RIP2 transfectants
Source text: FIG. 7A-C illustrate that both wild-type RIP2 and a kinase-deficient (KD) mutant of RIP2 are functional in the NOD1 apoptosis pathway. However, RIP2 lacking the CARD domain acts as a dominant negative inhibitor of NOD1 signaling. FIG. 7A graphically illustrates the percentage of cells that were apoptotic in populations of wild type RIP2, RIP2 KD and RIP2 ΔCARD cells. MCF-7 cells were stably transfected with wild type Myc-RIP2, Myc-RIP2 KD, and Myc-RIP2 ΔCARD and were left untreated or were treated with γTriDAP in the presence or absence of CHX (3 ug/ml) for 48 h. Cells were incubated with PI and apoptotic cell death was measured by flow cytometry. […] FIG. 7C illustrates γTriDAP-induction of phosphorylation of JNK in RIP2 wild types, MCF-7 RIP2 KD, and RIP2 ΔCARD cells.
The effect of RIP2 expression on γTriDAP-induced JNK phosphorylation was also examined (FIG. 7C).

MCF-7 Nod1 cells = test: Propidium iodide exclusion cell death assay, MCF-7 cells over-expressing Nod1; settings: MCF-7Nod1 cells, cycloheximide and γTriDAP, 48 h treatment
Method: as §1, §2

HT29 = test: IL-8 production, HT29 cells stably expressing Nod1; settings: HT29, Nod1 stably expressed; treatment as labelled

D-Ala-L-Glu-Diaminopimelic acid ([dA]-Glu-[DAP]; also: Glu joined to DAP through its gamma carboxyl (γTriDAP))
apoptosis [1]: did not result in apoptosis | cell death / apoptosis (MCF-7 cells): No cell death | cell death / apoptosis (MCF-7 cells; listed as 7-TriDAP): did not induce apoptosis | cell death (MCF-7 cells; wild-type MCF-7, γTriDAP 50 ug/ml in the presence of cycloheximide 3 ug/ml, 48 h): about 25% | proteolytic cleavage of PARP and capases 6, 7, 8 and 9 [2]: resulted in proteolytic cleavage | phosphorylation of JNK (JNK; MCF-7 expressing wild type RIP2 or RIP2 KD, in the presence of cycloheximide, 2 h): induced phosphorylation of JNK | phosphorylation of JNK (JNK; RIP2ΔCARD cells, with cycloheximide): no such effect | cell death (MCF-7 Nod1 cells): ~60% | IL−8 Production (HT29): poorly responsive
